Test results published in patent US8623110B2, “Protein and isolated or purified amino acid product containing compositions and uses thereof” (Archer Daniels Midland Company, priority 2007, dated 2014).

Assays:
Type in all cases: in vivo
[1] = test system: 'Floratam' St. Augustinegrass; test: Fertilizer efficacy on St. Augustinegrass (quality, color, clipping weight); settings: St. Augustinegrass sites 1 and 2; LSG at high rate (Tables 4-7)
Description: (§1) In another embodiment, the fertilizers of the various embodiments described herein were compared to industry standards for efficacy and phytotoxicity on St. Augustinegrass and bermudagrass. In another embodiment the experimental fertilizers were evaluated for their efficacy as a pre-emergent herbicide compared to an industry standard.
Efficacy of the fertilizers on the St. Augustinegrass Site was evaluated by applying treatments 1-8 to 4 replications of ‘Floratam’ St. Augustinegrass. Plot size was 1 m×2 m set up as a randomized complete block. Initially Nature Safe was applied as a granular, while ammonium sulfate and remaining products were applied as split liquid treatments sprayed out using a CO2 boom sprayer set to deliver a volume of 1 gallon/1000 ft^2. After six weeks all 10 treatments were applied to the 4 replications of ‘Floratam’. Products 3-10 were again applied as split liquid treatments using a CO2 boom sprayer. Split treatments were re-applied approximately 2 weeks later. Plots were mowed at 3.0 inches before fertilizer application. Irrigation (0.15 inch) was applied following each application. Clipping samples were taken approximately monthly for dry weight (grams) determination. […] All data was subject to statistical analysis and significant means were determined.

bermudagrass = test: Fertilizer efficacy on bermudagrass (quality, color, clipping weight); settings: LSG at high rate (Tables 8 and 9)
Description: as §1
Efficacy of the fertilizers on the Bermudagrass Site was evaluated by applying, treatments 1-8 to 4 replications of 1 m×2 m bermudagrass plots set up as a randomized complete block. Nature Safe was applied as a granular, while ammonium sulfate and remaining products were applied as split liquid treatments sprayed out using a CO2 boom sprayer set to deliver a volume of 1 gallon/1000 ft^2. Turfgrass ratings were taken to ensure turf quality/color uniformity.
After 6 weeks all 10 treatments were applied to 4 replications of bermudagrass plots. Products 3-10 were again applied as split liquid treatments sprayed out using a CO2 boom sprayer. Split treatments were re-applied approximately 2 weeks later. Plots were mowed at 0.5 inches before fertilizer application. Irrigation (0.15 inch) was applied following application. Clipping samples were taken approximately monthly for dry weight (grams) determination. […] All data was subject to statistical analysis and significant means were determined.

weeds = test: Pre-emergent herbicide efficacy, percent weed cover on bare soil; settings: compared to the untreated control (Table 13)
Description: Herbicide efficacy of the fertilizers was evaluated with Granular Lysine (LSG), Liquid Lysine (LSL), and Ronstar G by applying them to 3 replications of 1 m×1 m plots which also included an untreated control. Plots were located in an area of known weed infestation problems. Plots were prepared prior to treatment application by rototilling and applying 3 glyphosate applications to clear up pre-existing weeds and the test was initiated with 0 percent weed in all plots. On approximately monthly intervals percent weed cover ratings were taken. All data was subject to statistical analysis and significant means were determined.

## Cl.NCCCC[C@H](N)C(=O)O [LSG, L-lysine monohydrochloride]
[1]
  turfgrass quality and color (scale of 1-10): highest numerical average on many rating dates
bermudagrass
  turfgrass quality and color (scale of 1-10): best numerical turfgrass scores on most dates
weeds
  weed ratings (percent weed cover): not significantly different
